Source: patent US20210403922A1 (CRISP-HR Therapeutics, Inc., priority 2019, published 2021)
Entries after “also recorded” stand apart in the source; their conditions may differ.

What was measured:
HBB genomic region = experiment: Sanger sequencing of the HBB genomic region after Cas9 and gRNA transfection; assay type: cell-based, Human; settings: FIG. 6C / FIG. 13B, A549 cells, unmodified Cas9
A549 cells = experiment: Resazurin reduction assay, gRNA targeting exon 1 of HBB gene; assay type: cell-based, Human; settings: FIG. 6B / FIG. 13A
Experimental: Cells are cultured in a 96-well plate and each well is seeded with about 2.5×10^4 cells. Each column of the 96-well plate receives a treatment with different plasmid respectively. […] The cells in the first column are transfected with plasmids encoding the first fusion protein as shown in FIG. 1; the cells in the second column with plasmids encoding the second fusion protein as shown in FIG. 1; the cells in the third column with plasmids encoding the third fusion protein as shown in FIG. 1; the cells in the fourth column with plasmids encoding the fourth fusion protein as shown in FIG. 1; the cells in the fifth column with plasmids encoding the fifth fusion protein as shown in FIG. 1; the cells in the sixth column with plasmids encoding the sixth fusion protein as shown in FIG. 1; the cells in the seventh column with plasmids encoding the seventh fusion protein as shown in FIG. 1; the cells in the eighth column with plasmids encoding the eighth fusion protein as shown in FIG. 1; and the cells in the ninth column with plasmids encoding the ninth fusion protein as shown in FIG. 1. […] The cells in the twelfth column are transfected with plasmids encoding GFPs. The cells in the […] are controls without any treatment.
Each of the plasmid constructs also contained a nucleotide sequence encoding a gRNA directed to recognize exon 1 of the human HBB gene. […] Three gRNA sequences as listed in Table 2 directed to recognize one of HBB gene's exon were used.
Toxicity was quantified using Resazurin as in Example 1.

[1] = test system: phosphorylated 5′-double strand DNA ends; settings: cited from earlier work

Row | Molecule | Cas9 cleavage and repair via NHEJ (INDELs) by Sanger sequencing (HBB genomic region) | cellular toxicity of HBB gRNA guides with unmodified Cas9 (NT) (A549 cells) | cellular toxicity of HBB gRNA guides with unmodified Cas9 (NT) (A549 cells; listed as NT HBB-G3) | cellular toxicity of HBB gRNA guides with unmodified Cas9 (NT) (A549 cells; listed as gRNA G3) | Cas9 cleavage and repair via NHEJ (INDELs) by Sanger sequencing (HBB genomic region; listed as Cas9 HBB-G3) | affinity for phosphorylated 5′-double strand DNA ends as for unphosphorylated [1]
1 | HBB-G1: gRNA designed to target Exon 1 of the HBB gene, SEQ ID NO: 21 (guide GUAACGGCAGACUUCUCCUC; chemistry not given here) | could not be detected | – | – | – | – | –
2 | HBB-G3: gRNA designed to target Exon 1 of the HBB gene, SEQ ID NO: 23 (guide GAGGUGAACGUGGAUGAAGU; chemistry not given here) | characteristic noise following Cas9 cleavage and repair via NHEJ pathways; also recorded: significant cleavage | higher toxicity than either HBB-G1 or HBB-G2 | smallest normalized fold change number | highest cellular toxicity | generation of INDELs | –
3 | hExo1: human Exo1 exonuclease; N-terminal nuclease region SEQ ID NO: 1 (protein, listed as Homo sapiens) MGIQGLLQFIKEASEPIHVRKYKGQVVAVDTYCWLHKGAIACAEKLAKGEPTDRYVGFCMKFVNMLLSHGIKPILVFDGCTLPSKKEVERSRRERRQANLLKGKQLLREGKVSEARECFTRSINITHAMAHKVIKAARSQGVDCLVAPYEADAQLAYLNKAGIVQAIITEDSDLLAFGCKKVILKMDQFGNGLEIDQARLGMCRQLGDVFTEEKFRYMCILSGCDYLSSLRGIGLAKACKVLRLANNPDIVKVIKKIGHYLKMNITVPEDYINGFIRANNTFLYQLVFDPIKRKLIPLNAYEDDVDPETLSYAGQYVDDSIALQIALGNKDINTFEQIDDYNPDTAMPAHSRSHSWDDKTCQKSANVSSIWHRNYSPRPESGTVSDAPQLKE | – | – | – | – | – | roughly 10 ×
